Km data for 1 compound are collected here from publication PMC10094929, “Determination of Phenol with Peroxidase Immobilized on CaCO3” (International Journal of Molecular Sciences, 2023).

The test system of the assay is T1, native peroxidase (horseradish peroxidase).
T1 construct: gene PRXC1A
The note with it: free enzyme; phenol varied; 4-aminoantipyrine 0.3 mmol/L, hydrogen peroxide 4.68 mmol/L; 0.1 M phosphate-buffered saline pH 7.2; 24 °C.

Turning to `Oc1ccccc1` [phenol], the Km turned out to be 994 µM.

Usually Km stands for the concentration of substrate that gives half-maximal velocity.
